Literature values, collected in patent US5017613A, “Valproic acid preparations” (Sanofi, S. A., priority 1983, dated 1991).

Settings: after oral administration

In the case of `CCCC(CCC)C(=O)O` [valproic acid, Dipropylacetic or valproic acid], the “bioavailability in the blood of valproic acid” value is given as roughly 100%.
